Measured values reported in patent publication US20240174696A1, “2,8-DIAZASPIRO[4.5]DECANE COMPOUNDS” (Genentech, Inc., priority 2021, published 2024).

How the values were obtained:
[1] = biological target: T1, Human LATS2 catalytic domain (Homo sapiens (Human), UniProt Q9NRM7); experiment: Standard LATS2 HTRF Assay; type: biochemical; settings: asterisk: Standard LATS2 HTRF Assay, 50 μM ATP, 0.2 nM LATS2
Experimental: Human LATS2 catalytic domain which contains the amino acids G553-V1088 (accession NP_055387) was purified in-house. The LATS2 catalytic domain was co-purified with Mob1b (accession NP_775739). The LATS2 biochemical HTRF assay was performed using the HTRF KinEASE-STK S1 Kit (Cisbio, Cat #62ST1PEC), following the protocol from the manufacturer. Compounds were dispensed by the Echo Liquid Handler (Labcyte) into a white 384-well plate (PerkinElmer, Cat #6008289). 3 uL of 2×LATS2 enzyme solution was added to the compounds, following by a 10 minute incubation at room temperature. Then, 2×ATP and STK S1 peptide solution was added to initiate the one hour enzyme reaction at room temperature. The final condition of the reaction was 0.2 nM LATS2, 50 μM ATP, 0.5 μM STK S1 peptide in 50 mM HEPES pH7.2, 10 mM MgCl2, 0.1% BGG, 0.005% Brij-35, 1 mM DTT. The reaction was quenched by adding 6 uL of the detection mixture which contained Streptavidin XL665 and STK Antibody-Cryptate (Cisbio), incubate for 1 hour at room temperature. The HTRF (665 nm/620 nm) signal was read on the Envision plater reader (PerkinElmer). The IC50 values were determined by fitting the % inhibition with a nonlinear four-parameter logistical equation. The Ki values were calculated using the Cheng-Prusoff equation for a competitive inhibitor, IC50═Ki (1+S/Km)+M [E] with ATP Km for LATS2=105 μM.

[2] = system: TAZ nuclear translocation in SW1990 cells; experiment: TAZ Nuclear Translocation Assay; type: cell-based; settings: Homo sapiens, 4 hours
Summary of the method: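 SW1990 cells in RPMI1640/10% FBS treated with compounds for 4 h at 37 °C, then fixed and immunostained for TAZ with Hoechst nuclear counterstain and imaged by high-content imaging. Read-out is the nuclear/cytoplasmic-ring fluorescence ratio, normalized to DMSO (0%) and an inhibitor control (100%); EC50 from four-parameter fit.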

[3] = biological target: T1, Human LATS2 catalytic domain; experiment: LATS2 High ATP HTRF Assay; type: biochemical; settings: no asterisk: LATS2 High ATP HTRF Assay, 5000 μM ATP, 0.05 nM LATS2
Summary of the method: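 Phosphorylation of 0.5 μM STK S1 peptide at high ATP (5000 μM), 2 h at room temperature, by 0.05 nM LATS2 kinase domain/Mob1b complex after 10 min compound pre-incubation. Ki derived from HTRF-based IC50 (4-parameter logistic) by Cheng-Prusoff, ATP Km 105 μM.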

T1 sequence (Q9NRM7 553-1088): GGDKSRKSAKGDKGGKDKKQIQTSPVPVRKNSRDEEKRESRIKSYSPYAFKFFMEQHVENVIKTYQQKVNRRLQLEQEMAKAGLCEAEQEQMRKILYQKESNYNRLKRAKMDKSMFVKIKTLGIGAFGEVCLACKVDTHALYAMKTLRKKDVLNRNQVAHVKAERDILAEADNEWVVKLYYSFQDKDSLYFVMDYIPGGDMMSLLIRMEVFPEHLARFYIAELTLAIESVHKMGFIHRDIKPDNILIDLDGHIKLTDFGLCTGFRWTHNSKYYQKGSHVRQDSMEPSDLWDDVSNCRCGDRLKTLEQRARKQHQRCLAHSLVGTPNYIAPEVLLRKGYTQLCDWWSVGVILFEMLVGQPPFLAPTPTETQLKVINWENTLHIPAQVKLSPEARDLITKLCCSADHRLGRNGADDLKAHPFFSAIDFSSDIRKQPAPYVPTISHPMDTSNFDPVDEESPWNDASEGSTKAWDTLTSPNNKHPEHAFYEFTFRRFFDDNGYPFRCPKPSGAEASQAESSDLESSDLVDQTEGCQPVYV
T1 sequence (Q7L9L4 whole entry partner, the tested form may be a part): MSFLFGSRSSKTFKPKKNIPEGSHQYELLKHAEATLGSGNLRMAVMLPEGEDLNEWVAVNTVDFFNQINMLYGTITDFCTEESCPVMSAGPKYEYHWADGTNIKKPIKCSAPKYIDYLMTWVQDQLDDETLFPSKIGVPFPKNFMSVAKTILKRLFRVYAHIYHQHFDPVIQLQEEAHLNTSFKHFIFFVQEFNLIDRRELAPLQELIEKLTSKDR

| SMILES | Ki [1] [nM] | EC50 [2] [nM] | Ki [3] [nM] |
| --- | --- | --- | --- |
| c1cc(-c2nc(N3CCC4(CC3)CCN(C3COC3)C4)c3ccncc3n2)ccn1 [Compound 137, 4-(2-(oxetan-3-yl)-2,8-diazaspiro[4.5]decan-8-yl)-2-(pyridin-4-yl)pyrido[3,4-d]pyrimidine] | 2.17 | 1700 |  |
| O=C1CC2(CCN(c3nc(-c4ccncc4)nc4cnccc34)CC2)CN1 [Compound 164, 8-(2-(pyridin-4-yl)pyrido[3,4-d]pyrimidin-4-yl)-2,8-diazaspiro[4.5]decan-3-one] | 9.42 | > 10000 | 53.5 |
| O=C1NCCC12CCN(c1nc(-c3ccncc3)nc3cnccc13)CC2 [Compound 165, 8-(2-(pyridin-4-yl)pyrido[3,4-d]pyrimidin-4-yl)-2,8-diazaspiro[4.5]decan-1-one] | 3.93 | 6500 | 5.35 |

Stronger by Ki [1], values ahead:

| Ki [1] [nM] | EC50 [2] [nM] | Ki [3] [nM] | SMILES |
| --- | --- | --- | --- |
| 1.29 | 3100 |  | Cc1cc2c(N3CCC4(CCNC4)CC3)nc(-c3ccncc3)nc2cn1 [Compound 158, 6-methyl-2-(pyridin-4-yl)-4-(2,8-diazaspiro[4.5]decan-8-yl)pyrido[3,4-d]pyrimidine] |
| 1.02 | > 10000 |  | N#CC1CC(N2CCC3(CCN(c4nc(-c5ccncc5)nc5cnccc45)CC3)C2)C1 (stereo not shown) [Compound 118, 3-(8-(2-(pyridin-4-yl)pyrido[3,4-d]pyrimidin-4-yl)-2,8-diazaspiro[4.5]decan-2-yl)cyclobutanecarbonitrile] |
| 1.02 | 990 |  | c1cc(-c2nc(N3CCC4(CC3)CCN(C3CCOCC3)C4)c3ccncc3n2)ccn1 [Compound 122, 2-(pyridin-4-yl)-4-(2-(tetrahydro-2H-pyran-4-yl)-2,8-diazaspiro[4.5]decan-8-yl)pyrido[3,4-d]pyrimidine] |
| 0.16 | 7200 |  | FC(F)(F)c1[nH]ncc1-c1nc(N2CCC3(CCNC3)CC2)c2ccncc2n1 [Compound 154, 4-(2,8-diazaspiro[4.5]decan-8-yl)-2-(5-(trifluoromethyl)-1H-pyrazol-4-yl)pyrido[3,4-d]pyrimidine] |
